Assay results as given in US10183055B2, “Ang-(1-7) derivative oligopeptides for the treatment of pain and other indications” (ARIZONA BOARD OF REGENTS ON BEHALF OF THE UNIVERSITY OF …, priority 2014, dated 2019).
Like-named read-outs stand apart in the source and are kept apart here. Each block holds one molecule with its values, some of them ahead of it. Residues, ends and D or L forms follow the SMILES beside them. *: point of attachment. X2 = OC[C@H]1O[C@@H](O[C@H]2[C@H](O)[C@@H](O)[C@H](*)O[C@@H]2CO)[C@H](O)[C@@H](O)[C@H]1O; X1 = OC[C@H]1OC(*)[C@H](O)[C@@H](O)[C@@H]1O

How the values were obtained:
[1] = In Vitro Serum Half-Life Assay; conditions: mouse
Method: (§1) Aliquots were withdrawn at the indicated time intervals and the peptide concentration was determined using HPLC-MS and expressed as a percentage of the initial concentration.

naïve mice = assay: Rotarod performance test; assay type: in vivo; conditions: spinal 0.3 pmol/5 μL or systemic 0.058 and 10 μg/kg
Method: Rotarod: A rotarod performance test was used to determine the motor and/or sedative effects of Ang-(1-7) (Rotamex 4/8, Columbus Instruments, Columbus, Ohio, USA). Three days prior to testing, naïve mice were subjected to 5 trials in which they were able to acclimate to the rotating rod (10 revolutions/min). On the day of testing, animals were allowed one trial and then baselined. The amount of time the animal remained on the rod was recorded, with a cutoff time of 120 seconds to prevent exhaustion. Animals were dosed (i.p.) as previously described and reevaluated 15, 30, 60, and 120 minutes post-administration.
To exclude the possibility that Ang-(1-7) administration reduced mobility in order to increase tail withdraw latency, rotarod testing was performed. Naïve animals were trained to walk on a rotating rod for 2 min. After training, animals were injected with Ang-(1-7) by either spinal (0.3 pmol/5 μL) or systemic routes (0.058 and 10 μg/kg).

[2] = tested on: BALB/cAnNHsd mice with intramedullary 66.1 cells (CIBP); assay: Established CIBP, acute behavioral testing (flinching/guarding); assay type: in vivo; conditions: for pain behaviors, AT1 or AT2 antagonist administered alone: 0.4 mg/kg i.p.
Method: Animals: Female BALB/cAnNHsd mice (Harlan, Ind., USA) between 15 and 20 g were used in this study. Mice were housed in a climate control room on a 12-hour light/dark cycle and allowed food and water ad libitum. Animals were monitored on days 0, 7, 10, and 14 of the study for clinical signs of rapid weight loss and signs of distress.
All intraperitoneal (i.p.) injections were made at a volume of 10 mL/kg.
Arthrotomy—Intramedullary Implantation of 66.1 Cells: To induce CIBP, an arthrotomy was performed. Briefly, animals were anesthetized with 80 mg/kg ketamine-12 mg/kg xylazine (in a 10 mL/kg volume). The surgical area was shaved and cleaned with 70% ethanol and betadine. The condyles of the right femur were exposed and a burr-hole (0.66 mm) was drilled to create a space for the 66.1 cell inoculation. A 5 μl volume of 66.1 cells (8,000 cells per 1 μl) in MEM (or 5 μl MEM without cells in sham animals) was injected into the intramedullary space of the mouse femora. Proper placement of the injector was confirmed by radiograph (Faxitron X-ray imaging). Holes were sealed with bone cement and the patella reset. Muscle and skin were closed in separate layers with 5-0 vicryl suture and wound autoclips, respectively. Animals were given 8 mg/kg (10 mL/kg volume) gentamicin to prevent infection. Staples were removed 7 days post-surgery.
Acute Behavioral Testing: Fourteen days post-surgery, baseline behaviors of spontaneous flinching/guarding were recorded. Flinching was characterized by the lifting and rapid flexing of the hind paw ipsilateral to femoral inoculation when not associated with walking or other movement. Guarding was characterized by the lifting the inoculated hind limb into a fully retracted position under the torso. The total number of flinches and the time spent guarding 2 min duration was recorded. […] Antagonists were administered 30 minutes prior to Ang-(1-7). Following administration, animals were tested at over a three-hour time course until their pain behaviors returned to baseline

[3] = In vivo serum and CSF concentration after subcutaneous injection
Method: The peptides (10 mg/kg) or vehicle control were individually subcutaneously injected into naïve mice. Serum concentrations were determined every 10 minutes by HPLC-MS using a 20-30 μl blood sample. […] CSF samples were simultaneously withdrawn from the same animals via a microdialysis probe and assayed for the peptide concentration and corrected for basal CSF levels.

[4] = mouse, serum
Method: as §1

[5] = tested on: human umbilical vascular endothelial cells (HUVEC); assay: xCELLigence RTCA cell activation (cell impedance); assay type: cell-based
Text: Cell culture. To isolate primary hippocampal CA1 neuronal cells, whole brain was removed from neonatal rat pups (1-2 day old) and the cortices dissected away. The hippocampus was isolated and the CA1 field was excised and placed in buffer. After gentle disruption in digestion buffer, the cells were counted, placed in culture media, and plated in a 96-well format coated with poly-d-lysine. At the time of plating, cells were approximately at 50% density and were allowed to culture to 70-80% density before starting the assay. Commercially available HUVEC (Life Technologies/Thermo Fisher) was thawed and plated (5000-10,000 cells/well) in a 96-well format coated with gelatin. HUVEC cells were allowed to culture overnight before starting the assay.
Cell Activation: The xCELLigence system Real-Time Cell Analyzer (RTCA), developed by Roche Applied Science, uses microelectronic biosensor technology to do dynamic, real-time, label-free, and non-invasive analysis of cellular events including G-protein receptor activation of cells. The RTCA analysis was utilized to measure the potency and relative ability of oligopeptides of the invention and native Ang-(1-7) to activate human umbilical vascular endothelial cells (HUVEC) in culture. Following uniform cellular adherence based on a linear increase in cell impedance (CI), HUVECs were treated with Ang-(1-7) and oligopeptides of the invention. Each trace of the CI over time in FIG. 1 represents the average of 4 wells normalized to CI at the time of compound addition.

[6] = tested on: human umbilical vascular endothelial cells (HUVEC); assay: NO production assay (DAF-FM fluorescence, microplate reader); assay type: cell-based; conditions: 5 minutes exposure
Method: NO production assay. As a screen for mechanisms of action of oligopeptides of the invention, the ability to increase NO production of three oligopeptides of the invention (PN-A3, PN-A4 and PN-A5) were characterized and compared to native Ang-(1-7). Human umbilical vascular endothelial cells (HUVEC) culture plates received fluorescence reaction buffer (0.2 M phosphate buffer, pH 7, 1 mM EDTA, 0.1% glucose) containing diaminofluorescein-FM diacetate (DAF-FM, 1 μM) to measure real-time NO production. Time-resolved (10 minutes) fluorescent intensity was detected using a BioTek Synergy 2 microplate reader with excitation at 485 nm and emission at 535 nm. DAF-FM is a sensitive flourometric derivative for the selective detection of NO in live cells.
Values were normalized to control fluorescence.

Molecule: CC[C@H](C)[C@H](NC(=O)[C@H](Cc1ccc(O)cc1)NC(=O)[C@@H](NC(=O)[C@H](CCCNC(=N)N)NC(=O)[C@@H](N)CC(=O)O)C(C)C)C(=O)N[C@@H](Cc1c[nH]cn1)C(=O)N[C@@H](CO[C@@H]1O[C@H](CO)[C@@H](O[C@@H]2O[C@H](CO)[C@H](O)[C@H](O)[C@H]2O)[C@H](O)[C@H]1O)C(N)=O [Ang 1-6-Ser(OLac)-NH2] (H-DRVYIHS(X2)-NH2)
half-life [1]: 5.8 h

Molecule: CC[C@H](C)[C@H](NC(=O)[C@H](Cc1ccc(O)cc1)NC(=O)[C@@H](NC(=O)[C@H](CCCNC(=N)N)NC(=O)[C@@H](N)CC(=O)O)C(C)C)C(=O)N[C@@H](Cc1c[nH]cn1)C(=O)N1CCC[C@H]1C(=O)O [Ang-(1-7), Asp-Arg-Val-Tyr-Ile-His-Pro]
rotarod latencies versus vehicle (naïve mice): No significant differences in rotarod latencies

Molecule: CCCCc1nc(Cl)c(CO)n1Cc1ccc(-c2ccccc2-c2nn[nH]n2)cc1 [Losartan potassium]
pain behaviors, AT1 or AT2 antagonist administered alone [2]: neither Losartan potassium nor PD 123319 significantly altered pain behaviors | MPE in reducing flinching ([2]; Losartan potassium 0.4 mg/kg i.p. 30 minutes prior to Ang-(1-7) 0.058 μg/kg, 15 minutes post-administration): 80.56% | maximal possible efficacy (MPE) in reducing guarding ([2]; Losartan potassium 0.4 mg/kg i.p. 30 minutes prior to Ang-(1-7) 0.058 μg/kg, 30 minutes post-administration): 77.527%

Molecule: Cc1cc(Cn2cnc3c2C[C@@H](C(=O)O)N(C(=O)C(c2ccccc2)c2ccccc2)C3)ccc1N(C)C [PD 123319]
pain behaviors, AT1 or AT2 antagonist administered alone [2]: neither Losartan potassium nor PD 123319 significantly altered pain behaviors | guarding or flinching versus Ang-(1-7) alone ([2]; PD 123319 0.4 mg/kg i.p. 30 minutes prior to Ang-(1-7) 0.058 μg/kg): did not further increase nor decrease guarding or flinching

maximum CSF concentration ([3]; 10 mg/kg subcutaneous, naïve mice, microdialysis, corrected for basal CSF levels): about 400 nM | Cmax ([3]; mouse, serum, sc, 10 mg/kg): ~3.5 µM | half-life [4]: 1 h
Molecule: CC[C@H](C)[C@H](NC(=O)[C@H](Cc1ccc(O)cc1)NC(=O)[C@@H](NC(=O)[C@H](CCCNC(=N)N)NC(=O)[C@@H](N)CC(=O)O)C(C)C)C(=O)N[C@@H](Cc1c[nH]cn1)C(=O)N[C@@H](COC1O[C@H](CO)[C@@H](O)[C@H](O)[C@H]1O)C(N)=O (stereo partly drawn) [PN-A5, Ang 1-6-Ser(OGlc)-NH2] (H-DRVYIHS(X1)-NH2)

Molecule: PN-A3: Asp Arg Val Tyr Ile His Pro Ser* (glucosylated), carboxyl terminal NH2 (SEQ ID NO: 8) (DRVYIHPS; glucosylated; C-terminal amide; MOD_RES (8)..(8) Glucosylated-Ser; C-term -NH2)
increase in cell impedance (CI) over the native Ang-(1-7) ([5]; 10 nM): ~2 fold | increase in cell impedance (CI) over the native Ang-(1-7) ([5]; 100 nM): ~2 fold | NO production versus control levels (relative peak fluorescence intensity) [6]: significant elevation of NO over control levels

Molecule: PN-A4: Asp Arg Val Tyr Ile His Pro Ser** (lactosylated), carboxyl terminal NH2 (SEQ ID NO: 9) (DRVYIHPS; lactosylated; C-terminal amide; MOD_RES (8)..(8) Lactosylated-Ser; C-term -NH2)
increase in cell impedance (CI) over the native Ang-(1-7) ([5]; 100 nM): ~2 fold | NO production versus control levels (relative peak fluorescence intensity) [6]: significant elevation of NO over control levels
